In US20240109853A1 (Shanghai Yao Yuan Biotechnology Co., Ltd., priority 2020, published 2024):
Where two headings read alike, the source gives them in different places.

Experiments:
ALPK1 = ALPK1 (Homo sapiens (Human), UniProt Q96QP1); test: ALPK1 in vitro kinase assay (HTRF of TIFA phosphorylation); assay type: biochemical
hALPK1-V1092A = hALPK1-V1092A (Homo sapiens (Human), UniProt Q96QP1, V1092A); test: cell-based
Procedure: Accordingly, we used IL-8 secretion as an indicator of activated ALPK1 inhibition in cells expressing these mutations.
Transfection was performed according to manufacturer's protocols (Lipofectamine™ 3000, ThermoFisher). Transfected cells were selected, seeded onto 96-well plates and treated with serial dilutions of the test compounds for 6.5 hr. Following treatment, cell viability was determined using a luminescent cell viability assay (Cell Counting-Lite Assay or “CCL Assay” from Vazyme Biotech Co., Ltd.) and cell free supernatants were collected and analyzed for IL-8 protein by IL-8 ELISA as described above.
Fresh medium and compound were added at 18 hours. Cell viability and IL-8 secretion were determined 6 hours after the second addition of compound, using the CCL assay and IL-8 ELISA as described above.

[1] = test system: ALPK1-dependent NFκB reporter gene activation in HEK293 cells stably expressing an NF-kB reporter (G9 cells); test: NFκB gene reporter alkaline phosphatase assay; assay type: cell-based; conditions: Homo sapiens, HEK293; read-out: NFkB assay IC50
Summary of the method: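 Inhibition of ALPK1-driven NF-kB activation is measured as reduced reporter phosphatase activity after agonist challenge with D-glycero-D-manno-6-fluoro-heptose-1β-S-ADP. Cells receive serially diluted compound 30 min beforehand. Values are IC50s from non-linear regression.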

[2] = ALPK1 2 nM, TIFA substrate, ADP-Heptose activator, HTRF readout

Sequence of ALPK1 (Q96QP1 whole entry): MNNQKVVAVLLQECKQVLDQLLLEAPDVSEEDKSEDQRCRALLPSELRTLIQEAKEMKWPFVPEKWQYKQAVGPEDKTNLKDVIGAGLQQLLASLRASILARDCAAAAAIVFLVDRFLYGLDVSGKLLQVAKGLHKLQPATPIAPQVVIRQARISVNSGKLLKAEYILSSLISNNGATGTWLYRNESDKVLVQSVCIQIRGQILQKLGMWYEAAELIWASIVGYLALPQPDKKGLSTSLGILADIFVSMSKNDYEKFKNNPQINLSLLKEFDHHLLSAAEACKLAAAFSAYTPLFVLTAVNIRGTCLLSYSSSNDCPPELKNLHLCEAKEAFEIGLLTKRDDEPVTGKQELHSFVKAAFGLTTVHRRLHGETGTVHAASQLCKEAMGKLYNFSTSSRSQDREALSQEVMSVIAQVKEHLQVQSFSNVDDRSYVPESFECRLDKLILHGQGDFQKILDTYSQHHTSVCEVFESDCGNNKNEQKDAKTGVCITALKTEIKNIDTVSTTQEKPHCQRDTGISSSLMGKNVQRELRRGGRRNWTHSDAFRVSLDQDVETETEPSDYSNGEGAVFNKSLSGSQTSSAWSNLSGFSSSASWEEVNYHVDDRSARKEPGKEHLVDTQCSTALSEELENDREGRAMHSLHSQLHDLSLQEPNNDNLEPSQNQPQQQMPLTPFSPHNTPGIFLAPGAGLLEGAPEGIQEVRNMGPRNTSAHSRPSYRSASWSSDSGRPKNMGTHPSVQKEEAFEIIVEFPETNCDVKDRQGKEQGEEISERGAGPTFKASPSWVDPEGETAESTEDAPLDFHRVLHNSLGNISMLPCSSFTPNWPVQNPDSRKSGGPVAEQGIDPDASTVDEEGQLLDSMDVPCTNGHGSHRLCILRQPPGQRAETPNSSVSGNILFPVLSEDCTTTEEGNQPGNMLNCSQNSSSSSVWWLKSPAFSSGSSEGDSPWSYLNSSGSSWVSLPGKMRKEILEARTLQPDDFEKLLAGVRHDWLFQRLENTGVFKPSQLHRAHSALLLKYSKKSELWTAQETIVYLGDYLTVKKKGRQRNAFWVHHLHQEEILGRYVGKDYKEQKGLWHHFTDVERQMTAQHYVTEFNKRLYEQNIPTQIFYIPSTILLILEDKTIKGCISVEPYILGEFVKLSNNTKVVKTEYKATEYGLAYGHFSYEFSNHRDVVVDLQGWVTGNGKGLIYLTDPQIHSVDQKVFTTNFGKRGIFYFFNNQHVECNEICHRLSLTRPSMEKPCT
Sequence of hALPK1-V1092A (Q96QP1 whole entry V1092A): as the sequence (Q96QP1 whole entry) above, with V1092A counted along it

Structure (SMILES)	IC50 (ALPK1; [2])	IC50 (hALPK1-V1092A)	IC50 (ALPK1)	IC50 [1]
C#C[C@@](C)(c1ccc(Cl)cc1)c1csc(NC(=O)c2c(F)cc(N3CCN(C)CC3)cc2F)n1 [Example C011, (S)-N-(4-(2-(4-chlorophenyl)but-3-yn-2-yl)thiazol-2-yl)-2,6-difluoro-4-(4-methylpiperazin-1-yl)benzamide]	18 nM	353 nM		
C#C[C@@](C)(c1ccc(Cl)c(F)c1)c1csc(NC(=O)c2c(F)cc(N3CCNCC3)cc2F)n1 (stereo in doubt) [Example C038, N-(4-(2-(4-chloro-3-fluorophenyl)but-3-yn-2-yl)thiazol-2-yl)-2,6-difluoro-4-(piperazin-1-yl)benzamide]	17 nM	352 nM		
CC(c1ccccc1)c1csc(NC(=O)c2c(F)cc(N3CCNCC3)cc2F)n1 (stereo not shown) [Example C002, 2,6-difluoro-N-(4-(1-phenylethyl)thiazol-2-yl)-4-(piperazin-1-yl)benzamide]	47 nM	3370 nM		
CC(c1ccccc1)(c1ccc(Cl)cc1)c1csc(NC(=O)c2c(F)cc(N3CCNCC3)cc2F)n1 (stereo not shown) [Example C046, N-(4-(1-(4-chlorophenyl)-1-phenylethyl)thiazol-2-yl)-2,6-difluoro-4-(piperazin-1-yl)benzamide]	377 nM	4450 nM		
C#C[C@](C)(c1ccc(F)cc1)c1csc(NC(=O)c2c(F)cc(N3CCNCC3)cc2F)n1 (stereo in doubt) [Example C034, 2,6-difluoro-N-(4-(2-(4-fluorophenyl)but-3-yn-2-yl)thiazol-2-yl)-4-(piperazin-1-yl)benzamide]	40 nM	277 nM		
C#C[C@](C)(c1ccc(C)cc1)c1csc(NC(=O)c2c(F)cc(N3CCNCC3)cc2F)n1 (stereo in doubt) [Example C040, 2,6-difluoro-N-[4-[1-methyl-1-(p-tolyl)prop-2-ynyl]thiazol-2-yl]-4-piperazin-1-yl-benzamide]	29 nM	68 nM		
COCC(C)(c1ccc(Cl)cc1)c1csc(NC(=O)c2c(F)cc(N3CCNCC3)cc2F)n1 (stereo not shown) [Example C016, N-(4-(2-(4-chlorophenyl)-1-methoxypropan-2-yl)thiazol-2-yl)-2,6-difluoro-4-(piperazin-1-yl)benzamide]	16 nM	1590 nM		
C#C[C@](C)(c1ccc(Cl)cc1)c1csc(NC(=O)c2c(F)ccc(N3CCNCC3)c2F)n1 (stereo in doubt) [Example B075, N-(4-(2-(4-chlorophenyl)but-3-yn-2-yl)thiazol-2-yl)-2,6-difluoro-3-(piperazin-1-yl)benzamide]	308 nM	13000 nM		
C#CC(C)(c1ccc(OC)cc1)c1csc(NC(=O)c2c(F)cc(N3CCNCC3CO)cc2F)n1 (stereo not shown) [Example B100, 2,6-difluoro-4-[2-(hydroxymethyl)piperazin-1-yl]-N-[4-[1-(4-methoxyphenyl)-1-methyl-prop-2-ynyl]thiazol-2-yl]benzamide]	21 nM	429 nM		
COC[C@@](C)(c1ccccc1)c1csc(NC(=O)c2c(F)cc(N3CCNCC3)cc2F)n1 [Example C018, (S)-2,6-difluoro-N-(4-(1-methoxy-2-phenylpropan-2-yl)thiazol-2-yl)-4-(piperazin-1-yl)benzamide]	36 nM	1920 nM		
C#C[C@@](C)(c1ccc(F)cc1)c1csc(NC(=O)c2c(F)cc(N3CCNCC3)cc2F)n1 (stereo in doubt) [Example C035, 2,6-difluoro-N-(4-(2-(4-fluorophenyl)but-3-yn-2-yl)thiazol-2-yl)-4-(piperazin-1-yl)benzamide]	19 nM	67 nM		
C#C[C@](C)(c1ccc(Cl)cc1)c1csc(NC(=O)c2ccc(N3CCNCC3)cc2)n1 (stereo in doubt) [Example B068, N-(4-(2-(4-chlorophenyl)but-3-yn-2-yl)thiazol-2-yl)-4-(piperazin-1-yl)benzamide]	530 nM	27100 nM		
C#C[C@@](C)(c1ccc(Cl)cc1)c1csc(NC(=O)c2ccc(N3CCNCC3)cc2)n1 (stereo in doubt) [Example B067, N-(4-(2-(4-chlorophenyl)but-3-yn-2-yl)thiazol-2-yl)-4-(piperazin-1-yl)benzamide]	90 nM	215 nM		
C#C[C@@](C)(c1ccc(C)cc1)c1csc(NC(=O)c2c(F)cc(N3CCNCC3)cc2F)n1 (stereo in doubt) [Example C041, 2,6-difluoro-N-[4-[1-methyl-1-(p-tolyl)prop-2-ynyl]thiazol-2-yl]-4-piperazin-1-yl-benzamide]	7 nM	954 nM		
C#Cc1ccc(C(C)(C#C)c2csc(NC(=O)c3c(F)cc(N4CCNCC4)cc3F)n2)cc1 (stereo not shown) [Example C042, N-[4-[1-(4-ethynylphenyl)-1-methyl-prop-2-ynyl]thiazol-2-yl]-2,6-difluoro-4-piperazin-1-yl-benzamide]	101 nM	225 nM		
C#CC(C)(c1ccc(F)cc1)c1csc(NC(=O)c2c(F)cc(N3CCNCC3CO)cc2F)n1 (stereo not shown) [Example B099, 2,6-difluoro-N-[4-[1-(4-fluorophenyl)-1-methyl-prop-2-ynyl]thiazol-2-yl]-4-[2-(hydroxymethyl)piperazin-1-yl]benzamide]	30 nM	427 nM		

Structure (SMILES)	IC50 (ALPK1; [2])	IC50 (hALPK1-V1092A)	IC50 (ALPK1)	IC50 [1]
C#C[C@](C)(c1ccc(F)cc1)c1csc(NC(=O)NCCS(N)(=O)=O)n1 [Example A284, 2-(3-(4-(2-(4-fluorophenyl)but-3-yn-2-yl)thiazol-2-yl)ureido)ethanesulfona-mide]			666 nM	2600 nM
CC(C)(c1ccc(Br)cc1)c1csc(NC(=O)NC(CO)c2ccc(N3CCNCC3)cc2)n1 (stereo not shown) [Example A101, 1-(4-(2-(4-bromophenyl)propan-2-yl)thiazol-2-yl)-3-(2-hydroxy-1-(4-(piperazin-1-yl)phenyl)ethyl)urea]			50 nM	1650 nM
CC(C)(c1ccc(I)cc1)c1csc(NC(=O)NCc2ccc(N3CCNCC3)cc2)n1 [Example A067, 1-(4-(2-(4-iodophenyl)propan-2-yl)thiazol-2-yl)-3-(4-(piperazin-1-yl)benzyl)urea]			28 nM	1110 nM
C#C[C@](C)(c1ccc(F)cc1)c1csc(NC(=O)NCCO)n1 (stereo in doubt) [Example A282, 1-(4-(2-(4-fluorophenyl)but-3-yn-2-yl)thiazol-2-yl)-3-(2-hydroxyethyl)urea]			2150 nM	7720 nM
COc1ccc(C(C)(C)c2csc(NC(=O)NCc3ccc(C(=O)NC4CCN(C)CC4)nc3)n2)cc1 [Example A120, 5-((3-(4-(2-(4-methoxyphenyl)propan-2-yl)thiazol-2-yl)ureido)methyl)-N-(1-methylpiperidin-4-yl)picolinamide]			53 nM	990 nM
CC(C)(c1ccc(Br)cc1)c1csc(NC(=O)NCc2ccc(OCC(=O)N3CCNCC3)cc2)n1 [Example A033, 1-(4-(2-(4-bromophenyl)propan-2-yl)thiazol-2-yl)-3-(4-(2-oxo-2-(piperazin-1-yl)ethoxy)benzyl)urea]			80 nM	3190 nM
COc1ccc(C(C)(C)c2csc(NC(=O)NCc3cnc(N4CCNCC4)c(F)c3)n2)cc1 [Example A036, 1-((5-fluoro-6-(piperazin-1-yl)pyridin-3-yl)methyl)-3-(4-(2-(4-methoxyphenyl)propan-2-yl)thiazol-2-yl)urea]			24 nM	620 nM
CC(C)(c1ccc(Br)cc1)c1csc(NC(=O)NCCCCN)n1 [Example A028, 1-(4-aminobutyl)-3-(4-(2-(4-bromophenyl)propan-2-yl)thiazol-2-yl)urea]			53 nM	2560 nM
COCCOc1cc(CNC(=O)Nc2nc(C(C)(C)c3ccc(Br)cc3)cs2)ccc1N1CCNCC1 [Example A055, 1-(4-(2-(4-bromophenyl)propan-2-yl)thiazol-2-yl)-3-(3-(2-methoxyethoxy)-4-(piperazin-1-yl)benzyl)urea]			182 nM	4700 nM
COc1ccc(C(C)(C)c2csc(NC(=O)NCc3cc(F)c(N4CC5CC(C4)N5)c(F)c3)n2)cc1 [Example A232]			88 nM	590 nM
COc1ccc(C(C)(C)c2csc(NC(=O)NCc3ccc(N4CCNCC4)c(CO)c3)n2)cc1 [Example A058, 1-(3-(hydroxymethyl)-4-(piperazin-1-yl)benzyl)-3-(4-(2-(4-methoxyphenyl)propan-2-yl)thiazol-2-yl)urea]			130 nM	3100 nM
COc1ccc(C(C)(C)c2csc(NC(=O)NCc3cnc(N4CCNC(=O)C4)c(F)c3)n2)cc1 [Example A121, 1-((5-fluoro-6-(3-oxopiperaizn-1-yl)pyridin-3-yl)methyl)-3-(4-(2-(4-methoxyphenyl)propan-2-yl)thiazol-2-yl)urea]			209 nM	2020 nM
COc1ccc(C(C)(C)c2csc(NC(=O)NC(C)c3cc(F)c(N4CCNCC4)c(F)c3)n2)cc1 (stereo not shown) [Example A152, 1-(1-(3,5-difluoro-4-(piperazin-1-yl)phenyl)ethyl)-3-(4-(2-(4-methoxyphenyl)propan-2-yl)thiazol-2-yl)urea]			55 nM	350 nM
C#C[C@@](C)(c1ccc(OC)cc1)c1csc(NC(=O)N2CC(CO)C2)n1 [Example A256, (S)-3-(hydroxymethyl)-N-(4-(2-(4-methoxyphenyl)but-3-yn-2-yl)thiazol-2-yl)azetidine-1-carboxamide]			273 nM	14300 nM
C#CC(C)(c1ccc(Br)cc1)c1csc(NC(=O)NCCCO)n1 (stereo not shown) [Example A154, 1-(4-(2-(4-bromophenyl)but-3-yn-2-yl)thiazol-2-yl)-3-(3-hydroxypropyl)urea]			21 nM	380 nM
CC(C)(c1ccc(Br)cc1)c1csc(NC(=O)NCc2ccc(N3CCNCC3)nc2)n1 [Example A092, 1-(4-(2-(4-bromophenyl)propan-2-yl)thiazol-2-yl)-3-((6-(piperazin-1-yl)pyridin-3-yl)methyl)urea]			20 nM	570 nM
